Measured values reported in patent US9393216B2, “Vaginal matrices: nanofibers for contraception and prevention of HIV infection” (priority 2012, dated 2016).
Where two headings read alike, the source gives them in different places.

Tests used:
HIV-1 BaL [1] = assay: HIV-1 BaL infection inhibition assay in TZM-bl cells (luciferase); assay type: cell-based
Protocol: TZM-bl cells and HIV-1 BaL isolate are obtained. TZM-bl cells are a HeLa derived cell line that express CD4, CCR5 and CXCR4. Cells re plated in a black 96-well plate at a density of 5,000 cells/well (Corning, Corning, N.Y.) and maintained in Dulbecco's Modified Eagle Medium (DMEM) (Gibco Life Technologies) with 10% fetal bovine serum (Hyclone), 1% 100× penicillin/streptomycin (Invitrogen) and 1% 200 mM L-glutamine. […] Fibers were sterilized by UV irradiation for one hour per side prior to use. Treatments were added at a volume of 50 μL. […] Percent viability is calculated by normalizing to the average of media control wells (n=9). For composite fabrics, the drug concentration shown applies to both the amount of LNG and of TFV (1:1 ratio). […] Data represents triplicate wells with error bars indicating standard deviation.
Inhibition of infectious activity is quantified by measuring luminescence on a plate reader (Tecan). IC50 values of drug compounds re estimated using sigmoidal regression in Graphpad Prism, version 5.0.
TZM-bl cells and HIV-1 BaL isolate re obtained from the NIH AIDS Research and Reference Reagent Program, Division of AIDS, NIAID, NIH (http://www.aidsreagent.org/). TZM-bL cells, a derived HeLa cell line that expresses CD4, CCR5, and CXCR4, were added to black 96-well plates (Corning, Corning, N.Y.) with Dulbecco's Modified Eagle Medium (DMEM) (Gibco Life Technologies) with 10% fetal bovine serum (Hyclone), 1% 100× penicillin/streptomycin (Invitrogen), and 1% 200 mM L-glutamine (Invitrogen) with […] at a density of 5,000 cells/well. […] Fibers re sterilized by UV irradiation for 2 h (1 h per side). Treatments were added in […]. For the HIV-infectious inhibition assay, […] (240 TCID/well) are added to wells 1 h after drug treatment. […] Infectious activity is quantified by measuring luminescence on a plate reader (Tecan).
TZM-bl cells and HIV-1 BaL isolate re obtained from the NIH AIDS Research and Reference Reagent Program, Division of AIDS, NIAID, NIH (http://www.aidsreagent.org/). TZM-bL cells, a derived HeLa cell line that expresses CD4, CCR5, and CXCR4, are added to black 96-well plates (Corning, Corning, N.Y.) with Dulbecco's Modified Eagle Medium (DMEM) (Gibco Life Technologies) with 10% fetal bovine serum (Hyclone), 1% 100× penicillin/streptomycin (Invitrogen), and 1% 200 mM L-glutamine (Invitrogen) with 50 μL/well at a density of 5,000 cells/well. […] Treatments are diluted serially and randomly assigned to treatments A-E. A second operator, blinded to the identity of the treatments, added each in 50 μL volumes into duplicate wells (n=1 was used for PVP (D) and PEO Tween 20 (E) formulations only due to space limitations on the 96-well plate). 100 μL of HIV-BaL (240 TCID/well) was added to wells 1 h after drug treatment. […] Infectious activity was quantified by measuring luminescence on a plate reader (Tecan).

TZM-bl cells = assay: Cytotoxicity in TZM-bl cells (CellTiter Blue); assay type: cell-based; conditions: for Cytotoxicity to TZM-bl cells: 48 h exposure to 24 h eluates of PVA fabrics, 20 wt.% theoretical loading
Protocol: TZM-bl cells and HIV-1 BaL isolate are obtained. TZM-bl cells are a HeLa derived cell line that express CD4, CCR5 and CXCR4. Cells re plated in a black 96-well plate at a density of 5,000 cells/well (Corning, Corning, N.Y.) and maintained in Dulbecco's Modified Eagle Medium (DMEM) (Gibco Life Technologies) with 10% fetal bovine serum (Hyclone), 1% 100× penicillin/streptomycin (Invitrogen) and 1% 200 mM L-glutamine. […] Fibers were sterilized by UV irradiation for one hour per side prior to use. Treatments were added at a volume of 50 μL. Cytotoxicity is analyzed using the CellTiter Blue assay (Promega) to assess TZM-bl cell viability after 48 h of exposure to drug eluates from fiber release in cDMEM (24 h release, triplicate wells for each sample). Percent viability is calculated by normalizing to the average of media control wells (n=9). […] Positive control (12.5% DMSO) results in 4.6% viability. Data represents triplicate wells with error bars indicating standard deviation.

[2] = Drug stability in fibers stored at room temperature; assay type: physicochemical; conditions: PLLA/PEO meshes, at least five months
Protocol: Plates were then digitized using a scanner. Drug loading and stability is measured using fibers stored at room temperature (19-22° C.) for at least five months. […] UV-HPLC is used to quantify amount of drug in samples as previously described. Encapsulation efficiency is calculated as the amount of drug in drug-loaded fibers relative to the amount of drug detected in dissolved blank fibers spiked at 1% (wt/wt) drug loading.

HIV = conditions: cited from earlier work
[3] = DPV release from PVP and EC fibers; assay type: physicochemical
human swim-out sperm = assay: Sperm motility assay; assay type: cell-based; conditions: for Inhibition of sperm function: motility of purified (swim-out) human sperm
Protocol: (§1) Sperm is obtained from two donors for sperm motility experiments. A third donor is recruited for sperm viability assays with glycerol monolaurate. Swim out sperm are obtained as described previously. Briefly, one can place 0.5 mL aliquots of semen below 3 mL of Ham's F-10 media (Sigma-Aldrich) with 0.5% human serum albumin (Sigma-Aldrich) for 75 min in 5% CO2 and 37° C. The aspirate, enriched for motile sperm, was centrifuged at 300 RCF for five min and resuspended in fresh Ham's F-10 to a concentration of 20×10^6 sperm/mL. The effect of drug dilutions on sperm motility are performed both in whole semen and in swimout sperm by adding […] of sperm and drugs to a slide and observing sperm motility with phase contrast either at 200× and 37° C. (ECLIPSE Ti, Nikon), or by adding 200 […] and quantifying sperm motility with computer aided motility analysis for up to 7 min after the addition of drug. Multiple media only controls are run to ensure that any observed change in motility was minimally dependent upon time since ejaculation. Sperm viability was measured by adding 20 […] of Trypan blue (Sigma-Aldrich) and counting 100 live or dead sperm based on head staining after a 10 min incubation using brightfield microscopy.

[4] = test system: human sperm in whole semen; assay: Sperm viability assay (Trypan blue); assay type: cell-based
Protocol: as §1

HIV-1 BaL [5] = conditions: free (unformulated) drug; as reported previously; read-out: IC50 of free TFV; cited from earlier work
[6] = Cumulative release of TFV from PVA fiber meshes at pH 4.3 and pH 7.4; assay type: physicochemical; conditions: pH 4.3 and 7.4, small and large scale
Protocol: FIG. 26. Burst release of TFV within 5 minutes at pH 4.3 and 7.4 is similar for meshes electrospun on small scale and large scales. Graphs display cumulative release of TFV in pH 4.3 citrate buffer (a,c) or pH 7.4 PBS (b,d) for fibers spun on small scale versus large scale instruments for pH adjusted and unadjusted solutions.

[7] = In vitro release of TFV and LNG from PVA fabrics in 1:1 isopropanol:water; assay type: physicochemical
Protocol: Drug loading is analyzed by dissolving approximately 5 mg of fibers in 20 mL of a mixture of 1:1 isopropanol:water in a glass vial. Triplicate samples are allowed to dissolve overnight at 37° C. on a rotational shaker and concentration is quantified using a Shimadzu Prominence LC20AD UV-HPLC system. A Phenomenex Luna C18 column (5 μM, 250×4.6 mm) and LC Solutions software are used to analyze samples.
A method for dual analysis of TFV and LNG is developed using the following gradient method using mobile phase A (0.1% formic acid in water) and mobile phase B (acetonitrile). The run consisted of 0-5 minutes 72% mobile phase A, 5-10 minutes ramp to 15% mobile phase A, 10-20 minutes 15% mobile phase A, 20-25 minutes ramp to 72% mobile phase A, 25-30 minutes 72% mobile phase A. The total method time is 30 minutes, with an oven temperature of 30° C., a flow rate of 1 mL/min, and an injection volume of 20 μL. LNG is detected at 238 nm at a retention time of 18.5 minutes. TFV is detected at 259 nm at a retention time of 2.3 minutes.
In vitro release was analyzed in a 1:1 solution of isopropanol:water due to the limited solubility of LNG in water. Sink conditions were maintained throughout the study for both drugs in the release media. Approximately 5 mg of fibers were prepared in triplicate and an appropriate volume of release media was added to maintain sink conditions of 2.6 mg/mL LNG as has been reported. Samples were incubated at 37° C. on a rotational shaker, and 200 μL samples of release media was taken as indicated. Fresh media was added to replace sample volume at each timepoint.

[8] = Human immunodeficiency virus 1, BAL, TZM-bl, read-out: Final ARV drug concentration at IC50, drugs released from EC fibers (sustained)
[9] = Human immunodeficiency virus 1, BAL, TZM-bl, read-out: Final ARV drug concentration at IC50, drugs released from PVA fibers (pericoital)
[10] = single-drug PVA fibers, calculated for assumed 500 mg of fabric

maraviroc [MVC]
IC50 (HIV-1 BaL [1]; drugs released from EC fibers (sustained), read-out: Final ARV drug concentration at IC50): 4.2 nM | IC50 (HIV-1 BaL [1]; drugs released from PVA fibers (pericoital), read-out: Final ARV drug concentration at IC50): 1.6 nM | IC50 (HIV-1 BaL [1]; eluates released from PLLA/PEO fibers, read-out: IC50, drug eluted from fibers): 2.3 nM | Globally shared best fit IC50 (HIV-1 BaL [1]; pure maraviroc and maraviroc released from PVP/PEO electrospun formulations): 6.96 ng/mL | IC50 (HIV-1 BaL [1]; pure maraviroc and maraviroc released from PVP/PEO electrospun formulations, read-out: Globally shared best fit IC50): 13.5 nM | IC50 (HIV-1 BaL [1]; unformulated, read-out: IC50, unformulated drug): 0.9 nM

Cc1nnc(C(=O)NC(C)(C)c2nc(C(=O)NCc3ccc(F)cc3)c(O)c(=O)n2C)o1 [RAL, raltegravir]
IC50 (HIV-1 BaL [1]; [8]): 3.8 nM | IC50 (HIV-1 BaL [1]; [9]): 1.2 nM

Cc1cn([C@H]2C[C@H](N=[N+]=[N-])[C@@H](CO)O2)c(=O)[nH]c1=O [AZT, 3′-azido-3′-deoxythymidine]
IC50 (HIV-1 BaL [1]; Human immunodeficiency virus 1, BAL, TZM-bl, read-out: IC50, drug eluted from fibers): 84 nM | IC50 (HIV-1 BaL [1]; Human immunodeficiency virus 1, BAL, TZM-bl, read-out: IC50, unformulated drug): 120 nM | Toxicity to TZM-bL cells (TZM-bl cells; compared with media controls): nontoxic | Initially-loaded drug detected in stored fiber meshes [2]: 0.95%

Cc1cc(C#N)cc(C)c1Oc1nc(Nc2ccc(C#N)cc2)nc(N)c1Br [ETR, etravirine]
IC50 (HIV-1 BaL [1]; [8]): 2.7 nM | IC50 (HIV-1 BaL [1]; [9]): 0.7 nM

Cc1cc(C)c(Nc2ccnc(Nc3ccc(C#N)cc3)n2)c(C)c1 [DPV, dapivirine]
Duration of prevention of localized and disseminated infection posttreatment (HIV): ≤ 6 days | DPV release characteristics ([3]; from EC fibers): sustained release | DPV release characteristics ([3]; from PVP fibers): burst-release

C[S+](C)[O-] [DMSO]
Viability, positive control (TZM-bl cells): 4.6%

ferrous D-gluconate [FeGluc]
Inhibition of sperm function (human swim-out sperm): ineffective

C#C[C@]1(O)CC[C@H]2[C@@H]3CCC4=CC(=O)CC[C@@H]4[C@H]3CC[C@@]21CC [LNG, levonorgestrel]
Cytotoxicity to TZM-bl cells (TZM-bl cells): induced by high concentrations

methyl-β-cyclodextrin [MBCD]
Inhibition of sperm function (human swim-out sperm): ineffective

CCCCCCCCCCCC(=O)OCC(O)CO (centres unmarked) [GML, glycerol monolaurate]
Reduction of sperm viability ([4]; 5% (wt/vol)): 33.1% | Reduction of sperm viability ([4]; concentration not given): 19.6% | Concentrations that inhibited sperm motility (complete spermiostasis) (human swim-out sperm): 0.05-0.5 % (wt/vol) | EC50, reduction of sperm motility (human swim-out sperm; at 2 min): 0.005 % wt/vol | Lowest concentration with reduction in motility (human swim-out sperm; no complete spermiostasis): ≥ 0.00005 % (wt/vol)

C[C@H](Cn1cnc2c(N)ncnc21)OCP(=O)(O)O [TFV, tenofovir]
IC50 (HIV-1 BaL [5]): 1800 nM | Time of burst release of TFV [6]: ≤ 5 min | Cytotoxicity to TZM-bl cells (TZM-bl cells): not | Cumulative mass of drug released after 15 minutes [7, 10]: ~40 mg | Cumulative mass of drug released after 60 minutes [7, 10]: ~60 mg | Time to 100% TFV release ([7]; single-drug or 1:1 TFV:LNG PVA fabrics, 20 wt.% theoretical loading): ≤ 30 min
